Results on 18 compounds are retold here after patent US20260053834A1, “COVALENT MODIFIERS OF AKT1 AND USES THEREOF” (Terremoto Biosciences, Inc., priority 2023, published 2026).

Test [1] concerns LAPC4 prostate cancer cells, which express the AKT1 E17K allele. The test is described as follows: Antiproliferative effects in LAPC4 cells (CellTiter Glo, 72 h). It is filed as cell-based. Particulars: Homo sapiens, LAPC4, 72 h, read-out: LAPC4 proliferation IC50: GeoMean IC50. The gist of the method: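 Cells grown in IMDM with 12% FBS, seeded at 1,000 cells/well and treated with compound dilutions in DMSO for 72 h. Intracellular ATP read by luminescence. IC50 from a log(inhibitor) vs. response Hill fit.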

The next test has as its target T1, AKT1 E17K (Homo sapiens, UniProt P31749, E17K).
T1 construct: expressed in transfected cells; host or cells: HEK293
The test is described as follows: Live cell target engagement by NanoBRET competitive probe displacement, AKT1 E17K. It is filed as binding. As to conditions: transfected HEK293 cells, 2 h at 37° C., read-out: AKT1 E17K IC50: GeoMean IC50. In general terms: In BRET a luciferase serves as donor, and the signal depends on an acceptor being close.

A further test deals with T2, AKT1 WT (Homo sapiens, UniProt P31749).
T2 construct: expressed in transfected cells; host or cells: HEK293
T2 sequence (P31749 whole entry): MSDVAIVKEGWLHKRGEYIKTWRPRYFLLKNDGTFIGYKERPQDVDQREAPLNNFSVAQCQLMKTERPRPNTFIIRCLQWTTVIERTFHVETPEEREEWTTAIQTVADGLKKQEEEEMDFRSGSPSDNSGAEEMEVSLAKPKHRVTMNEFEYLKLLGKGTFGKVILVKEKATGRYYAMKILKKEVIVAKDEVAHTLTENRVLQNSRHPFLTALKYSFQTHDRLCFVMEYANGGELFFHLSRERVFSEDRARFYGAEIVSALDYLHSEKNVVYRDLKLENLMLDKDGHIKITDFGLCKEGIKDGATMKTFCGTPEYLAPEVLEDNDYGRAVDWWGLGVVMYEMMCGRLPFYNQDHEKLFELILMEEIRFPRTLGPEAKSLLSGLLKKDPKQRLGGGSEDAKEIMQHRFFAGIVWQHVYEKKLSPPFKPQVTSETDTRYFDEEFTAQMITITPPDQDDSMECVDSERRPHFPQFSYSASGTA
The test is described as follows: Live cell target engagement by NanoBRET competitive probe displacement, AKT1 WT. Particulars: transfected HEK293 cells, 2 h at 37° C., read-out: AKT1 WT IC50: GeoMean IC50. The test is classed as binding.

The next test has as its target T3, AKT2 (Homo sapiens, UniProt P31751).
T3 construct: expressed in transfected cells; host or cells: HEK293
The test is described as follows: Live cell target engagement by NanoBRET competitive probe displacement, AKT2. It is filed as binding. Particulars: transfected HEK293 cells, 2 h at 37° C., read-out: AKT2 IC50: GeoMean IC50.

Structures are written as SMILES.

T3 sequence (P31751 whole entry): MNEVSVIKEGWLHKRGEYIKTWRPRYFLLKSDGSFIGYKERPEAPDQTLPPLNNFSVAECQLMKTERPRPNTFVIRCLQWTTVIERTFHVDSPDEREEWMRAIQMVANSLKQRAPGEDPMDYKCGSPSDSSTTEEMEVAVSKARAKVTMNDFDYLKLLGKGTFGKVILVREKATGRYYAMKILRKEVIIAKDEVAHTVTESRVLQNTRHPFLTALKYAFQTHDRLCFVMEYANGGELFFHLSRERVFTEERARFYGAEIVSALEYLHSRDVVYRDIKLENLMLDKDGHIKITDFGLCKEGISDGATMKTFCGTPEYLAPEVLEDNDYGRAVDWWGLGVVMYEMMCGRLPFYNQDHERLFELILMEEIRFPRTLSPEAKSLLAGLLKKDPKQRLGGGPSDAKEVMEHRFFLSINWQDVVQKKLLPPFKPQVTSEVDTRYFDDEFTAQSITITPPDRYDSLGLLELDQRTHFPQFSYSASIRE
T1 sequence (P31749 whole entry E17K): as the sequence (P31749 whole entry) above, with E17K counted along it

Consider `Nc1ncccc1-c1nc2ccc(-n3nccn3)nc2n1-c1ccc2c(c1)CC[C@@H]2NC(=O)c1cc(F)c(O)c(C=O)c1` [Example 115, N-[(1S)-5-[2-(2-aminopyridin-3-yl)-5-(1,2,3-triazol-2-yl)imidazo[4,5-b]pyridin-3-yl]-2,3-dihydro-1H-inden-1-yl]-3-fluoro-5-formyl-4-hydroxybenzamide], for which the IC50 lay in the range of 10 to 100 nM in test [1], 10 to 100 nM at AKT1 E17K, 10 to 100 nM on AKT1 WT and 100 to 2000 nM on AKT2.
`Nc1ncccc1-c1nc2ccc(-n3ccc(C(F)F)n3)nc2n1-c1ccc2c(c1)CC[C@@H]2NC(=O)c1ccc(O)c(C=O)c1` [Example 116, (S)—N-(5-(2-(2-aminopyridin-3-yl)-5-(3-(difluoromethyl)-1H-pyrazol-1-yl)-3H-imidazo[4,5-b]pyridin-3-yl)-2,3-dihydro-1H-inden-1-yl)-3-formyl-4-hydroxybenzamide]: the IC50 is 100 to 2000 nM in test [1], 10 to 100 nM at AKT1 E17K, 10 to 100 nM on AKT1 WT and 100 to 2000 nM at AKT2.
`Nc1ncccc1-c1nc2ccc(-n3ccc(-n4cccn4)n3)nc2n1-c1ccc2c(c1)CC[C@@H]2NC(=O)c1ccc(O)c(C=O)c1` [Example 117, (S)—N-(5-(5-(1′H-[1,3′-bipyrazol]-1′-yl)-2-(2-aminopyridin-3-yl)-3H-imidazo[4,5-b]pyridin-3-yl)-2,3-dihydro-1H-inden-1-yl)-3-formyl-4-hydroxybenzamide]: the IC50 in test [1] was 10 to 100 nM; on AKT1 E17K, 10 to 100 nM; at AKT1 WT it was 10 to 100 nM; at AKT2, 100 to 2000 nM.
On to `Nc1ncccc1-c1nc2ccc(-n3nccn3)nc2n1-c1ccc2c(c1)CC[C@@H]2NC(=O)c1cc(C=O)c(O)c(F)c1F` [Example 118, (S)—N-(5-(2-(2-aminopyridin-3-yl)-5-(2H-1,2,3-triazol-2-yl)-3H-imidazo[4,5-b]pyridin-3-yl)-2,3-dihydro-1H-inden-1-yl)-2,3-difluoro-5-formyl-4-hydroxybenzamide], for which the IC50 in test [1] is 10 to 100 nM; at AKT1 E17K it was 10 to 100 nM; on AKT1 WT, 10 to 100 nM; on AKT2 it was 100 to 2000 nM.
Regarding `C#Cc1ccn(-c2ccc3nc(-c4cccnc4N)n(-c4ccc5c(c4)CC[C@@H]5NC(=O)c4ccc(O)c(C=O)c4)c3n2)n1` [Example 119, N-[(1S)-5-[2-(2-aminopyridin-3-yl)-5-(3-ethynylpyrazol-1-yl)imidazo[4,5-b]pyridin-3-yl]-2,3-dihydro-1H-inden-1-yl]-3-formyl-4-hydroxybenzamide], the IC50 is 10 to 100 nM in test [1], below 10 nM on AKT1 E17K, 10 to 100 nM on AKT1 WT and 100 to 2000 nM at AKT2.
With `Cn1ncc(-c2ccc3nc(-c4cccnc4N)n(-c4ccc5c(c4)CC[C@@H]5NC(=O)c4ccc(O)c(C=O)c4)c3n2)n1` [Example 120, N-[(1S)-5-[2-(2-aminopyridin-3-yl)-5-(2-methyl-1,2,3-triazol-4-yl)imidazo[4,5-b]pyridin-3-yl]-2,3-dihydro-1H-inden-1-yl]-3-formyl-4-hydroxybenzamide], the IC50 in test [1] is 10 to 100 nM; on AKT1 E17K it was below 10 nM; on AKT1 WT, 10 to 100 nM; at AKT2, 100 to 2000 nM.
For `Nc1ncccc1-c1nc2ccc(-c3ncco3)nc2n1-c1ccc2c(c1)CC[C@@H]2NC(=O)c1ccc(O)c(C=O)c1` [Example 121, (S)—N-(5-(2-(2-aminopyridin-3-yl)-5-(oxazol-2-yl)-3H-imidazo[4,5-b]pyridin-3-yl)-2,3-dihydro-1H-inden-1-yl)-3-formyl-4-hydroxybenzamide], the IC50 is 10 to 100 nM in test [1], below 10 nM on AKT1 E17K, 10 to 100 nM on AKT1 WT and 100 to 2000 nM on AKT2.
`CN(C)C(=O)Nc1ccc(C(=O)N[C@H]2CCc3cc(-n4c(-c5cccnc5N)nc5ccc(-n6ccc(F)n6)nc54)ccc32)cc1C=O` [Example 122, N-[(1S)-5-[2-(2-aminopyridin-3-yl)-5-(3-fluoropyrazol-1-yl)imidazo[4,5-b]pyridin-3-yl]-2,3-dihydro-1H-inden-1-yl]-4-[(dimethylcarbamoyl)amino]-3-formylbenzamide]: the IC50 in test [1] was 10 to 100 nM; on AKT1 E17K, below 10 nM; on AKT1 WT, 10 to 100 nM; at AKT2, 100 to 2000 nM.
For the compound `Nc1ncccc1-c1nc2ccc(-n3cccn3)nc2n1-c1ccc2c(c1)CC[C@@H]2NC(=O)c1cc(C=O)c(O)c(Cl)c1F` [Example 123, (S)—N-(5-(2-(2-aminopyridin-3-yl)-5-(1H-pyrazol-1-yl)-3H-imidazo[4,5-b]pyridin-3-yl)-2,3-dihydro-1H-inden-1-yl)-3-chloro-2-fluoro-5-formyl-4-hydroxybenzamide], the IC50 in test [1] was 10 to 100 nM; on AKT1 E17K, below 10 nM; on AKT1 WT, 10 to 100 nM; on AKT2, 10 to 100 nM.
As to `CSc1ccn(-c2ccc3nc(-c4cccnc4N)n(-c4ccc5c(c4)CC[C@@H]5NC(=O)c4ccc(O)c(C=O)c4)c3n2)n1` [Example 124, N-[(1S)-5-[2-(2-aminopyridin-3-yl)-5-[3-(methylsulfanyl)pyrazol-1-yl]imidazo[4,5-b]pyridin-3-yl]-2,3-dihydro-1H-inden-1-yl]-3-formyl-4-hydroxybenzamide], the IC50 in test [1] fell in the range of 10 to 100 nM; on AKT1 E17K, 10 to 100 nM; at AKT1 WT it was 10 to 100 nM; on AKT2 it was 100 to 2000 nM.
`Nc1ncccc1-c1nc2ccc(-n3ccc(F)n3)nc2n1-c1ccc2c(c1)CC[C@@H]2NC(=O)c1cc(C=O)c(O)c(F)c1F` [Example 125, (S)—N-(5-(2-(2-aminopyridin-3-yl)-5-(3-fluoro-1H-pyrazol-1-yl)-3H-imidazo[4,5-b]pyridin-3-yl)-2,3-dihydro-1H-inden-1-yl)-2,3-difluoro-5-formyl-4-hydroxybenzamide]: the IC50 in test [1] is 10 to 100 nM; at AKT1 E17K it was below 10 nM; on AKT1 WT, 10 to 100 nM; on AKT2, 100 to 2000 nM.
Turning to `COCc1ccn(-c2ccc3nc(-c4cccnc4N)n(-c4ccc5c(c4)CC[C@@H]5NC(=O)c4ccc(O)c(C=O)c4)c3n2)n1` [Example 126, N-[(1S)-5-[2-(2-aminopyridin-3-yl)-5-[3-(methoxymethyl)pyrazol-1-yl]imidazo[4,5-b]pyridin-3-yl]-2,3-dihydro-1H-inden-1-yl]-3-formyl-4-hydroxybenzamide], the IC50 in test [1] is 10 to 100 nM; on AKT1 E17K, below 10 nM; on AKT1 WT, 10 to 100 nM; on AKT2 it was 100 to 2000 nM.
As for `Nc1ncccc1-c1nc2ccc(-n3ccc(CO)n3)nc2n1-c1ccc2c(c1)CC[C@@H]2NC(=O)c1ccc(O)c(C=O)c1` [Example 127, (S)—N-(5-(2-(2-aminopyridin-3-yl)-5-(3-(hydroxymethyl)-1H-pyrazol-1-yl)-3H-imidazo[4,5-b]pyridin-3-yl)-2,3-dihydro-1H-inden-1-yl)-3-formyl-4-hydroxybenzamide], the IC50 in test [1] lay within 10 to 100 nM; at AKT1 E17K, 10 to 100 nM; on AKT1 WT, 10 to 100 nM; on AKT2, 100 to 2000 nM.
Regarding `Cc1cc(C)n(-c2ccc3nc(-c4cccnc4N)n(-c4ccc5c(c4)CC[C@@H]5NC(=O)c4ccc(O)c(C=O)c4)c3n2)n1` [Example 129, N-[(1S)-5-[2-(2-aminopyridin-3-yl)-5-(3,5-dimethylpyrazol-1-yl)imidazo[4,5-b]pyridin-3-yl]-2,3-dihydro-1H-inden-1-yl]-3-formyl-4-hydroxybenzamide], the IC50 in test [1] is 100 to 2000 nM; on AKT1 E17K, 10 to 100 nM; at AKT1 WT, 10 to 100 nM; on AKT2, 100 to 2000 nM.
For `Nc1ncccc1-c1nc2ccc(-c3nccs3)nc2n1-c1ccc2c(c1)CC[C@@H]2NC(=O)c1cc(F)c(O)c(C=O)c1` [Example 130, N-[(1S)-5-[2-(2-aminopyridin-3-yl)-5-(1,3-thiazol-2-yl)imidazo[4,5-b]pyridin-3-yl]-2,3-dihydro-1H-inden-1-yl]-3-fluoro-5-formyl-4-hydroxybenzamide], the IC50 in test [1] was 10 to 100 nM; at AKT1 E17K it was 10 to 100 nM; at AKT1 WT it was 10 to 100 nM; on AKT2, 100 to 2000 nM.
As to `Cc1cc(-n2cccn2)nc2c1nc(-c1cccnc1N)n2-c1ccc2c(c1)CC[C@@H]2NC(=O)c1ccc(O)c(C=O)c1` [Example 131, (S)—N-(5-(2-(2-aminopyridin-3-yl)-7-methyl-5-(1H-pyrazol-1-yl)-3H-imidazo[4,5-b]pyridin-3-yl)-2,3-dihydro-1H-inden-1-yl)-3-formyl-4-hydroxybenzamide], the IC50 (in test [1]; on AKT1 E17K; on AKT1 WT; at AKT2) was 10 to 100 nM in each case.
On to `Cc1cnc(-c2ccc3nc(-c4cccnc4N)n(-c4ccc5c(c4)CC[C@@H]5NC(=O)c4ccc(O)c(C=O)c4)c3n2)s1` [Example 132, (S)—N-(5-(2-(2-aminopyridin-3-yl)-5-(5-methylthiazol-2-yl)-3H-imidazo[4,5-b]pyridin-3-yl)-2,3-dihydro-1H-inden-1-yl)-3-formyl-4-hydroxybenzamide], for which the IC50 in test [1] is 10 to 100 nM; on AKT1 E17K it was below 10 nM; on AKT1 WT, 10 to 100 nM; at AKT2 it was 100 to 2000 nM.
Regarding `Cc1csc(-c2ccc3nc(-c4cccnc4N)n(-c4ccc5c(c4)CC[C@@H]5NC(=O)c4ccc(O)c(C=O)c4)c3n2)n1` [Example 133, (S)—N-(5-(2-(2-aminopyridin-3-yl)-5-(4-methylthiazol-2-yl)-3H-imidazo[4,5-b]pyridin-3-yl)-2,3-dihydro-1H-inden-1-yl)-3-formyl-4-hydroxybenzamide], the IC50 was 10 to 100 nM in test [1], below 10 nM on AKT1 E17K, below 10 nM at AKT1 WT and 10 to 100 nM on AKT2.
